# Data taken from patent US9771369B2, “Compounds and methods for kinase modulation, and indications therefor” (Plexxikon Inc., priority 2014, dated 2017).
# Molecular target: c-kit mutant D816V (Homo sapiens (Human), UniProt P10721, D816V/DEL694-753)
# Test: c-Kit mutant D816V biochemical assay (AlphaScreen kinase activity)
# Summary of the method: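 AlphaScreen with streptavidin donor and PY30 acceptor beads read phosphotyrosine on biotin-(E4Y)10 substrate (30 nM). Enzyme: E. coli-expressed N-His c-Kit D816V, residues 551-934 lacking kinase insert 694-753. Reaction 30 min at room temperature, 10 μM ATP, 5% DMSO; IC50 fitted over 8 three-fold dilutions.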
# Sequence of c-kit mutant D816V (P10721 other isoform, or with tags, fused parts or gaps D816V/del 694-753): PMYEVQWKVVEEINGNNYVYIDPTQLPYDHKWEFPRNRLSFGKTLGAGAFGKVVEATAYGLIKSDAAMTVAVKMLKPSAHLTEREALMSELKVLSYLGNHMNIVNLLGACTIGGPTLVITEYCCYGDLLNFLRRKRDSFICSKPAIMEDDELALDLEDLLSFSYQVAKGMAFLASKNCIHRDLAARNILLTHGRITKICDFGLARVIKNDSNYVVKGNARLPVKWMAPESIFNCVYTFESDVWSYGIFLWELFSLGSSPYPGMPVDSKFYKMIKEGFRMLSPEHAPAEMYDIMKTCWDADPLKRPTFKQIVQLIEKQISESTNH
row,Compound,IC50 [µM]
1,"Cc1nc(C2CCN(c3ncnc4[nH]c(-c5ccc(F)cc5)cc34)CC2)[nH]c1-c1ccc(F)cc1 [P-3006, 6-(4-fluorophenyl)-4-[4-[5-(4-fluorophenyl)-4-methyl-1H-imidazol-2-yl]-1-piperidyl]-7H-pyrrolo[2,3-d]pyrimidine]",0.0001 to 1
2,"Cc1ccc(-c2[nH]c(C3CCN(c4ncnc5[nH]c(-c6ccc(C#N)cc6)cc45)CC3)nc2C)cc1 [P-3089, 4-[4-[4-[4-methyl-5-(p-tolyl)-1H-imidazol-2-yl]-1-piperidyl]-7H-pyrrolo[2,3-d]pyrimidin-6-yl]benzonitrile]",0.0001 to 1
3,"Cc1ccc(-c2[nH]c(C3CCN(c4ncnc5[nH]c(-c6ccc(C#N)cc6)cc45)CC3)nc2C)s1 [P-3090, 4-[4-[4-[4-methyl-5-(5-methyl-2-thienyl)-1H-imidazol-2-yl]-1-piperidyl]-7H-pyrrolo[2,3-d]pyrimidin-6-yl]benzonitrile]",0.0001 to 1
4,"COc1cc(-c2cc3c(N4CCC(c5nc(C)c(-c6ccc(OC(C)C)cc6)[nH]5)CC4)ncnc3[nH]2)ccn1 [P-3091, 4-[4-[5-(4-isopropoxyphenyl)-4-methyl-1H-imidazol-2-yl]-1-piperidyl]-6-(2-methoxy-4-pyridyl)-7H-pyrrolo[2,3-d]pyrimidine]",0.0001 to 1
5,"Cc1nc(C2CCN(c3ncnc4[nH]c(-c5ccc(F)cc5)cc34)CC2)[nH]c1-c1ccc(OC(C)C)cc1 [P-3092, 6-(4-fluorophenyl)-4-[4-[5-(4-isopropoxyphenyl)-4-methyl-1H-imidazol-2-yl]-1-piperidyl]-7H-pyrrolo[2,3-d]pyrimidine]",0.0001 to 1
6,"Cc1nc(C2CCN(c3ncnc4[nH]c(-c5ccc(C#N)cc5)cc34)CC2)[nH]c1-c1ccc(OC(C)C)cc1 [P-3093, 4-[4-[4-[5-(4-isopropoxyphenyl)-4-methyl-1H-imidazol-2-yl]-1-piperidyl]-7H-pyrrolo[2,3-d]pyrimidin-6-yl]benzonitrile]",0.0001 to 1
7,"CCOc1cc(-c2[nH]c(C3CCN(c4ncnc5[nH]c(-c6ccc(F)cc6)cc45)CC3)nc2C)ccc1C [P-3094, 4-[4-[5-(3-ethoxy-4-methyl-phenyl)-4-methyl-1H-imidazol-2-yl]-1-piperidyl]-6-(4-fluorophenyl)-7H-pyrrolo[2,3-d]pyrimidine]",0.0001 to 1
